Laboratory results taken from patent US4174402A, “Method for the prophylaxis of SRS-A-induced symptoms” (priority 1978, dated 1979).
Read-outs that look alike come from different tables or passages of the source.

What was measured:
[1] = tested on: acetylcholine; test: Test Procedure 7: acetylcholine-induced bronchoconstriction in anesthetized guinea pigs; type: in vivo, guinea pig; settings: 100 mg/kg p.o.
Procedure: Guinea pigs, weighing 250-350 g were anesthetized with 1.5 g/kg i.p. of urethane and prepared for measurements of resistance to pulmonary inflation using a slightly modified Konzett-Rossler preparation (see Test Procedure 2). Histamine phosphate (5 μg/kg as base) was injected four times at 5 minute intervals in order to ascertain that the maximum bronchoconstrictor responsiveness has been obtained. Acetylcholine was injected intravenously at […] 5 minutes following the last injection of histamine and the increase in intratracheal pressure was recorded. Compound b or aminophylline (100 mg/kg p.o.) or the control vehicle were administered to five guinea pigs each, 1 hour before the injection of acetylcholine (1/2 hour before the anesthesia).

[2] = tested on: serotonin; test: Test Procedure 6: serotonin-induced bronchoconstriction in anesthetized guinea pigs; type: in vivo, guinea pig; settings: iv 5.0 mg/kg; P 0.01
Procedure: Guinea pigs, weighing 275-340 g, were anesthetized and prepared for measurements of resistance to pulmonary inflation using a slightly modified Konzett-Rossler method (see Test Procedure 2). All guinea pigs received 0.1 mg/kg of propranolol iv and 5 minutes later, 50 mcg/kg of serotonin (creatinine complex) iv. Compound b or cyproheptadine were administered iv just before the injection of propranolol at 50 or 5 mg/kg, respectively. Compound b was prepared as a 5% solution in 5% N-methylglucamine and cyproheptadine as a 0.25% aqueous solution.

[3] = tested on: bradykinin
Procedure: Antagonism of bradykinin-induced bronchoconstriction in guinea pigs was determined by measuring increases in resistance to artificial pulmonary inflation (Konzett-Rossler preparation). […] Due to large variations in bronchoconstricting responses among individual guinea pigs, each guinea pig serves as its own control and was challenged with bradykinin twice. The second response to bradykinin was expressed as percent of the first response to bradykinin. […] All guinea pigs having a first bradykinin response of less than 12 mm Hg were rejected as poor responders. […] In order to augment the bronchoconstrictor response, each guinea pig received 100 mcg propranolol/kg, iv, 5 minutes before the first injection of bradykinin (30 mcg/kg, iv). […] Five minutes after the injection of a test compound the guinea pigs received the second injection of bradykinin and the peak of the response determined. The effects of both test compounds were expressed as % inhibition of bradykinin-induced increase in bronchial resistance to forced inflation, as compared to the levels of bronchial resistance following iv administration of their respective solvent controls.

[4] = tested on: SRS-A; test: Test Procedure 1: antagonism of SRS-A-induced bronchoconstriction in unanesthetized guinea pigs; type: in vivo, guinea pig; settings: for ED50: Cavia porcellus, po, read-out: AED50; for ED50 / Potency (Phenylbutazone = 1) (95% confidence limits): 1 hour before SRS-A; for Potency (Phenylbutazone = 1) (95% confidence limits): p.o.
Procedure: The test compounds were administered orally to four guinea pigs/group 1 hour before the SRS-A challenge. The test compounds were prepared as suspensions in 1% gum tragacanth. Bronchoconstriction was graded 1+ to 3+ according to severity (1+ denoted restlessness and slight thoracic dyspnea, 2+ denoted moderate thoracic dyspnea and 3+ denoted convulsive dyspnea, regardless of whether the guinea pig died of asphyxiation or recovered).

[5] = tested on: SRS-A; test: Test Procedure 2: inhibition of SRS-A-induced bronchoconstriction in anesthetized guinea pigs (Konzett-Rossler); type: in vivo, guinea pig; settings: for inhibition of SRS-A-induced increases in resistance to inflation: intravenous
Excerpt: SRS-A was harvested as described in Test Procedure 1 described hereinabove. A slightly modified Konzett-Rossler preparation [Arch. […] Guinea pigs weighing 350 to 450 g were anesthetized ip with 1.5 g/kg urethane. The jugular vein and trachea were cannulated and the guinea pigs were artificially respired at a rate of 40 strokes/minute. […] A side arm of the inflationary air cannula was connected to a pressure transducer and resistance to pulmonary inflation continuously recorded. […] Studies with SRS-A commenced after each guinea pig had attained maximum bronchoconstrictor response to histamine. […] The effects of the test compounds were studied by measuring SRS-A-induced bronchoconstriction side-by-side in two guinea pigs, one medicated and one control. Subsequent medicated/control pairs were alternated on two respiratory pumps. In this manner, the gradual decomposition of SRS-A and differences between the two pump/recorder systems, if any, were controlled. The dose (volume) of each sample of SRS-A was adjusted in each pair to keep the peaks of increases in bronchial resistance in control guinea pigs within 13 to 40 mmHg. Bronchoconstriction following injection of SRS-A was measured two ways; as the peak increase in resistance to inflation and, in view of the occasional irregular bronchoconstriction response curves following injection of SRS-A, as the sum of increases in bronchoconstriction over 10 minutes (pressure/time units). Pressure/time units were calculated by measuring the area under the curve of inflationary resistance where ordinates were set at 10 mm of pen excursion/10 mm pressure Hg and the abscissas were set at 15 mm of paper travel/minute. […] SRS-A-induced bronchoconstriction (increase in resistance) was calculated as the area under the curve and over the normal base line of resistance to inflation. […] The effects of the test compounds upon SRS-A-induced bronchoconstriction were expressed as ratios of the peaks and as ratios of the pressure/time units between the paired medicated and control guinea pigs. The consistency of paired responses to SRS-A in nonmedicated guinea pigs was determined in the same manner, by alternating the ratios of the results of guinea pigs on pumps one and two. […] SRS-A was injected 5 minutes after these latter injections. Compound b was prepared as a solution in 2% N-methylglucamine and used within 3 hours. […] Control guinea pigs received injections of the respective solvent vehicles. In order to compare the activities of compound b following iv and po routes of administration, compound b was also administered orally. […] Control guinea pigs received 2% N-methylglucamine. Fifteen minutes later, the guinea pigs were anesthetized, cannulated, and prepared for injections of SRS-A as described. The procedure was timed so that SRS-A was injected 1 hour after the oral administration of compound b. In a separate experiment, using the same methodology, the duration anti-SRS-A activity of compound b was determined after oral administration. Compound b was finely ground in a tissue homogenizer and prepared as a suspension in 0.5% gum tragacanth. A dose of 10 mg/kg was administered and anti-SRS-A effect studied at 1, 4 and 7 hr postmedication. The ratios of peak increases in intratracheal pressure between paired medicated and control guinea pigs was used to calculate percent inhibition.

[6] = tested on: SRS-A; test: Test Procedure 3: SRS-A-induced increase in resistance to pulmonary inflation in anesthetized cats; type: in vivo, cat
Procedure: The trachea of each cat was cannulated, and the cats were artificially respired at 15 strokes/minute with a stroke volume of 22 ml/kg. A side-arm of the intratracheal cannula was connected to a Statham transducer, and the intratracheal pressure was recorded continuously on a polygraph. One femoral vein was cannulated in all cats receiving intravenous administration of drugs. In addition, most of the cats were cannulated through the femoral artery; this cannula was attached to another Statham transducer, and the blood pressure of these cats recorded. All cats received 1.0 mg/kg of propranolol and 0.2 mg/kg of thenyldiamine intravenously 3 minutes before iv injection of SRS-A. SRS-A was obtained from rat peritoneal cavities as described previously in Test Procedure 1. Each pool of rat ip fluid containing SRS-A was dose-ranged and a dose selected that was estimated to cause an average increase in intrapulmonary resistance to inflation in control cats by 4-6 mmHg. Test dose volumes ranged from 1.0 to 2.0 ml/kg, iv. […] Both test compounds and the sodium hydroxide vehicle were injected iv 5 minutes before the injections of SRS-A (2 minutes before the injection of propranolol and thenyldiamine).

[7] = tested on: SRS-A; test: as above; type: in vivo, cat; remark: listed apart in the source
[8] = tested on: SRS-A; settings: guinea pigs; cited from earlier work
[9] = tested on: bradykinin; settings: guinea pigs; cited from earlier work
[10] = tested on: serotonin; settings: guinea pig, in vivo; cited from earlier work
[11] = tested on: acetylcholine; settings: guinea pig, in vivo; cited from earlier work

In the case of `Cn1c(=O)c2[nH]cnc2n(C)c1=O` [Aminophylline, aminophylline, reference compound], the “% Inhibition” value [1] is reported as 70%, the “Peak Increase in Intracheal Pressure, mm Hg” value [1] is reported as 7 ± 1 mm Hg and the “effect against acetylcholine-induced bronchoconstriction” value [1] is reported as “inhibition of acetylcholine responses”.
In the case of `CN1CCC(=C2c3ccccc3C=Cc3ccccc32)CC1` [Cyproheptadine, cyproheptadine, reference compound], the “Increase in Resistance (mm Hg)” value [2] is reported as 5 ± 1 mm Hg and the Inhibition % [2] is reported as 89%.
With `CCCCC1C(=O)N(c2ccccc2)N(c2ccccc2)C1=O` [Na Phenylbutazone] the “% Inhibition” value ([3]; iv 1.0 mg/kg) was 20%, the “Average Increase In Bronchial Resistance (2nd Response in % of 1st Response ± S.E.)” value ([3]; iv 1.0 mg/kg) was 64 ± 12% and the “% Inhibition” value ([3]; iv 3.3 mg/kg) was 50%. The “Average Increase In Bronchial Resistance (2nd Response in % of 1st Response ± S.E.)” value ([3]; iv 3.3 mg/kg) was 40 ± 9%, the “% Inhibition” value ([3]; iv 10.0 mg/kg) was 56% and the “Average Increase In Bronchial Resistance (2nd Response in % of 1st Response ± S.E.)” value ([3]; iv 10.0 mg/kg) was 35 ± 11%. For the same molecule, the “% Inhibition” value ([3]; iv 33.0 mg/kg) was 50% and the “Average Increase In Bronchial Resistance (2nd Response in % of 1st Response ± S.E.)” value ([3]; iv 33.0 mg/kg) was 40 ± 7%.
With `CCCCC1C(=O)N(c2ccccc2)N(c2ccccc2)C1=O` [Phenylbutazone, phenylbutazone, reference compound] the “Incidence of Severe Bronchospasms, %” value ([4]; 1.6 mg/kg p.o.) was 62%, the “Incidence of Severe Bronchospasms, No. Bronchosp./No. Tested” value (“Incidence … No. Bronchosp./No. Tested” for short) ([4]; 1.6 mg/kg p.o.) was 47/77 and the “Incidence of Severe Bronchospasms, %” value ([4]; 6.2 mg/kg p.o.) was 34%. For the same molecule, the “Incidence … No. Bronchosp./No. Tested” value ([4]; 6.2 mg/kg p.o.) was 29/86, the “Incidence of Severe Bronchospasms, %” value ([4]; 25 mg/kg p.o.) was 15% and the “Incidence … No. Bronchosp./No. Tested” value ([4]; 25 mg/kg p.o.) was 21/147. The “Incidence of Severe Bronchospasms, %” value ([4]; 100 mg/kg p.o.) was 4%, the “Incidence … No. Bronchosp./No. Tested” value ([4]; 100 mg/kg p.o.) was 2/46 and the “% Inhibition (peak increase in resistance)” value ([5]; i.v. 1.0 mg/kg) was 0%. The “% Inhibition (sum of increase in resistance over 10 min)” value ([5]; i.v. 1.0 mg/kg) was 0%, the “% Inhibition (peak increase in resistance)” value ([5]; i.v. 3.3 mg/kg) was 59% and the “% Inhibition (sum of increase in resistance over 10 min)” value ([5]; i.v. 3.3 mg/kg) was 56%. The “% Inhibition (peak increase in resistance)” value ([5]; i.v. 10 mg/kg) was 72%, the “% Inhibition (sum of increase in resistance over 10 min)” value ([5]; i.v. 10 mg/kg) was 81% and the “% Inhibition (peak increase in resistance)” value ([5]; i.v. 33 mg/kg) was 89%. For the same molecule, the “% Inhibition (sum of increase in resistance over 10 min)” value ([5]; i.v. 33 mg/kg) was 90%, the “inhibition of SRS-A-induced increases in resistance to inflation” value [5] was “inhibited SRS-A-induced increases in resistance to inflation in a dose-related manner” and the “inhibition of SRS-A-induced increases in resistance to inflation” value ([5]; 10 and 33 mg/kg) was “nearly complete inhibition”. The “% Inhibition” value ([6]; intravenous 10.1 mg/kg) was 21%, the “Max. Increase in Resistance to Pulm. Inflation, mm Hg ± S.E.” value (“Max. Increase in Resistance” below) ([6]; intravenous 10.1 mg/kg) was 4.7 ± 1.5 mm Hg and the “inhibition of SRS-A-induced increase in resistance to inflation” value ([6]; intravenous 33 mg/kg) was “complete inhibition”. The “% Inhibition” value ([6]; intravenous 33.0 mg/kg) was 100%, the “inhibition of bradykinin-induced bronchoconstriction” value ([3]; iv 33 mg/kg, remaining five guinea pigs) was “further dose-related inhibition” and the “inhibition of bradykinin-induced increase in bronchial resistance” value ([3]; iv 3.3 and 10 mg/kg) was “significantly inhibited”. The ED50 ([7]; Felis catus, 5 min, intravenous, read-out: iv AED50) was 16 mg/kg, the “Max. Increase in Resistance” value ([7]; intravenous 33.0 mg/kg) was 0 mm Hg and the “% Inhibition” value ([7]; oral 10.0 mg/kg) was 25%. The “Max. Increase in Resistance” value ([7]; oral 10.0 mg/kg) was 3.0 ± 0.9 mm Hg, the “% Inhibition” value ([7]; oral 33.0 mg/kg) was 98% and the “Max. Increase in Resistance” value ([7]; oral 33.0 mg/kg) was 0.1 ± 0.1 mm Hg. The “effect on SRS-A-induced bronchoconstriction” value [8] was “inhibit”, the “effect on bradykinin-induced bronchoconstriction” value [9] was “inhibit” and the “effect on serotonin-induced bronchoconstriction” value [10] was “ineffective”. The “effect on acetylcholine-induced bronchoconstriction” value [11] was “ineffective”.
With `O=C(O)C1CCc2c(c3ccccc3n2C(=O)c2ccccc2)C1` (stereo not shown) [a, 9-benzoyl-1,2,3,4-tetrahydrocarbazole-3-carboxylic acid] the ED50 [4] was 10 mg/kg and the “Potency (Phenylbutazone = 1) (95% confidence limits)” value (shortened to “Potency … (95% confidence limits)”) [4] was 1.1 (0.53.8).
In the case of `CC(=O)Oc1ccccc1C(=O)O` [aspirin], the “effect on SRS-A-induced bronchoconstriction” value [8] is given as “inhibit”, the “effect on bradykinin-induced bronchoconstriction” value [9] is given as “inhibit” and the “effect on serotonin-induced bronchoconstriction” value [10] is given as “ineffective”. For the same molecule, the “effect on acetylcholine-induced bronchoconstriction” value [11] was “ineffective”.
With `O=C(O)C1CCCc2c1c1ccccc1n2C(=O)c1ccccc1` (stereo not shown) [c, 9-benzoyl-1,2,3,4-tetrahydrocarbazole-4-carboxylic acid] the ED50 [4] was 0.3 mg/kg and the “Potency … (95% confidence limits)” value [4] was 16 (6.9-37).
With `Cc1ccc(C(=O)n2c3c(c4ccccc42)C(C(=O)O)CCC3)cc1` (stereo not shown) [d, 9-(4-toluoyl)-1,2,3,4-tetrahydrocarbazole-4-carboxylic acid] the ED50 [4] was 5 mg/kg and the “Potency … (95% confidence limits)” value [4] was 1.7 (0.6-6.8).
For `COc1ccc2c(c1)c1c(n2C(=O)c2ccccc2)CCCC1C(=O)O` (stereo not shown) [e, 9-benzoyl-6-methoxy-1,2,3,4-tetrahydrocarbazole-4-carboxylic acid], the ED50 [4] was 1 mg/kg and the “Potency … (95% confidence limits)” value [4] was 18 (5.0-86).
With `Cc1ccc2c(c1)c1c(n2C(=O)c2ccccc2)CCCC1C(=O)O` (stereo not shown) [f, 9-benzoyl-6-methyl-1,2,3,4-tetrahydrocarbazole-4-carboxylic acid] the ED50 [4] was 1.7 mg/kg and the “Potency … (95% confidence limits)” value [4] was 6.7 (3.2-16).
